Patent US10266497B2 (ABIDE THERAPEUTICS, INC., priority 2017, dated 2019)

Molecular target: T1, MAGL (Mus musculus, UniProt O35678)
T1 sequence (O35678 1-303): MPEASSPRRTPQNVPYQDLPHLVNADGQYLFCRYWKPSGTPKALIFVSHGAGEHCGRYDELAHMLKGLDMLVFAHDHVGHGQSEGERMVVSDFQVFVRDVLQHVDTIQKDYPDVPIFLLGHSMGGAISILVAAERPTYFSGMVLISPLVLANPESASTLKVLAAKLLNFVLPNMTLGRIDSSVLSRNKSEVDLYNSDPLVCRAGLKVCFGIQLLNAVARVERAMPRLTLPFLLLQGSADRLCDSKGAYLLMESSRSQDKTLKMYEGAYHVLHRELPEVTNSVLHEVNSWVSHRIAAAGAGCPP
Experiment: In vitro competitive activity-based protein profiling, MAGL, mouse
Settings: read-out: MAGL % inh. 1 μM (mouse)

Row | SMILES | inhibition at 1 µM [%]
1 | C[C@H]1CC(N(C)Cc2ccc(C(F)(F)F)cc2N2CCCC2)CCN1C(=O)n1cc(Cl)c(C(=O)O)n1 (stereo partly drawn) [Example 33, 4-Chloro-1-((2S)-2-methyl-4-(methyl(2-(pyrrolidin-1-yl)-4-(trifluoromethyl)benzyl)amino)piperidine-1-carbonyl)-1H-pyrazole-3-carboxylic Acid] | 50 to 75
2 | NC(=O)c1ccn(C(=O)N2CCN(Cc3cccc(C4(O)CCOCC4)c3)CC2)n1 [Example 237, 1-(4-(3-(4-hydroxytetrahydro-2H-pyran-4-yl)benzyl)piperazine-1-carbonyl)-1H-pyrazole-3-carboxamide] | > 75
3 | Cc1cc(CN2CCCC23CCN(C(=O)n2ccc(C(=O)O)n2)CC3)cc(C(F)(F)F)c1 [Example 303, 1-(1-(3-methyl-5-(trifluoromethyl)benzyl)-1,8-diazaspiro[4.5]decane-8-carbonyl)-1H-pyrazole-3-carboxylic acid] | > 75
4 | O=C(O)c1ccn(C(=O)N2CCC3(CCCN3Cc3cc(Cl)cc(N4CCCC4)c3)CC2)n1 [Example 344, 1-(1-(3-chloro-5-(pyrrolidin-1-yl)benzyl)-1,8-diazaspiro[4.5]decane-8-carbonyl)-1H-pyrazole-3-carboxylic acid] | > 75
5 | CNC(=O)c1ccn(C(=O)N2CCN(Cc3ccc(Cl)cc3)CC2)n1 [Example 420, 1-(4-(4-chlorobenzyl)piper-azine-1-carbonyl)-N-methyl-1H-pyrazole-3-carboxamide] | > 75
6 | NC(=O)c1ccn(C(=O)N2CCC3(CCN(Cc4ccc(Cl)cc4)C3)C2)n1 (stereo not drawn) [Example 421, 1-(7-(4-chlorobenzyl)-2,7-diazaspiro[4.4]non-ane-2-carbonyl)-1H-pyrazole-3-carboxamide] | > 75
7 | CNC(=O)c1ccn(C(=O)N2CCN(Cc3cccc(Oc4ccccc4)c3)CC2)n1 [Example 423, N-methyl-1-(4-(3-phenoxybenzyl)piperazine-1-carbonyl)-1H-pyrazole-3-carboxamide] | > 75
8 | CNC(=O)c1ccn(C(=O)N2CC3CN(Cc4ccc(C(F)(F)F)cc4)CC3C2)n1 (stereo not drawn) [Example 425, N-methyl-1-(5-(4-(trifluoromethyl)benzyl)octahydro-pyrrolo[3,4-c]pyrrole-2-carbonyl)-1H-pyrazole-3-carboxamide] | > 75
9 | CNC(=O)c1ccn(C(=O)N2CCC3(CCN(Cc4cc(Cl)ccc4Cl)C3)C2)n1 (stereo not drawn) [Example 428, 1-(7-(2,5-dichlorobenzyl)-2,7-diazaspiro[4.4]non-ane-2-carbonyl)-N-methyl-1H-pyrazole-3-carboxamide] | > 75
10 | NC(=O)c1ccn(C(=O)N2CCC3(CCN(Cc4cccc(C(F)(F)F)c4)C3)C2)n1 (stereo not drawn) [Example 429, 1-(7-(3-(trifluoromethyl)benzyl)-2,7-diazaspiro[4.4]non-ane-2-carbonyl)-1H-pyrazole-3-carboxamide] | > 75
11 | CNC(=O)c1ccn(C(=O)N2CC3CN(Cc4cc(Cl)ccc4Cl)CC3C2)n1 (stereo not drawn) [Example 430, 1-(5-(2,5-dichlorobenzyl)octa-hydropyrrolo[3,4-c]pyrrole-2-carbonyl)-N-methyl-1H-pyrazole-3-carboxamide] | > 75
12 | CNC(=O)c1ccn(C(=O)N2CC3CN(Cc4cccc(C(F)(F)F)c4)CC3C2)n1 (stereo not drawn) [Example 432, N-methyl-1-(5-(3-(trifluoromethyl)benzyl)octahydro-pyrrolo[3,4-c]pyrrole-2-carbonyl)-1H-pyrazole-3-carboxamide] | > 75
13 | CNC(=O)c1ccn(C(=O)N2C[C@H]3C[C@@H](N(C)Cc4ccccc4C(F)(F)F)C[C@H]3C2)n1 [Example 434, N-methyl-1-(cis-5-(methyl(2-(trifluoromethyl)benzyl)amino)octa-hydrocyclopenta[c]pyrrole-2-carbonyl)-1H-pyrazole-3-carboxamide] | > 75
14 | CNC(=O)c1ccn(C(=O)N2CCC3(CCN(Cc4cc(Cl)cc(C(F)(F)F)c4)C3)C2)n1 (stereo not drawn) [Example 435, 1-(7-(3-chloro-5-(trifluoromethyl)benzyl)-2,7-diazaspiro[4.4]non-ane-2-carbonyl)-N-methyl-1H-pyrazole-3-carboxamide] | > 75
15 | NC(=O)c1ccn(C(=O)N2CCC3(CCN(Cc4ccc(N5CCOCC5)cc4C(F)(F)F)C3)C2)n1 (stereo not drawn) [Example 436, 1-(7-(4-morpholino-2-(trifluoromethyl)benzyl)-2,7-diazaspiro[4.4]non-ane-2-carbonyl)-1H-pyrazole-3-carboxamide] | > 75
16 | CNC(=O)c1ccn(C(=O)N2CC3CN(Cc4cc(Cl)cc(C(F)(F)F)c4)CC3C2)n1 (stereo not drawn) [Example 437, 1-(5-(3-chloro-5-(trifluoromethyl)benzyl)octahydro-pyrrolo[3,4-c]pyrrole-2-carbonyl)-N-methyl-1H-pyrazole-3-carboxamide] | > 75
17 | CNC(=O)c1ccn(C(=O)N2C[C@H]3C[C@@H](N(C)Cc4ccc(C(F)(F)F)cc4)C[C@H]3C2)n1 [Example 439, N-methyl-1-(cis-5-(methyl(4-(trifluoromethyl)benzyl)amino)octa-hydrocyclopenta[c]pyrrole-2-carbonyl)-1H-pyrazole-3-carboxamide] | > 75
18 | CNC(=O)c1ccn(C(=O)N2CC3CN(Cc4ccc(N5CCOCC5)cc4C(F)(F)F)CC3C2)n1 (stereo not drawn) [Example 440, N-methyl-1-(5-(4-morpholino-2-(trifluoromethyl)benzyl)octahydro-pyrrolo[3,4-c]pyrrole-2-carbonyl)-1H-pyrazole-3-carboxamide] | > 75
19 | Cc1cn(C(=O)N2CCN(Cc3cccc(Oc4ccc(Cl)cc4)c3)C[C@@H]2C)nc1C(=O)O [Example 442, (S)-1-(4-(3-(4-chlorophenoxy)benzyl)-2-methylpiperazine-1-carbonyl)-4-methyl-1H-pyrazole-3-carboxylic acid] | > 75
20 | O=C(O)c1nn(C(=O)N2CCN(Cc3ccc(C(F)(F)F)cc3N3CCCC3)CC2)cc1Cl [Example 443, 4-chloro-1-(4-(2-(pyrrolidin-1-yl)-4-(trifluoromethyl)benzyl)piperazine-1-carbonyl)-1H-pyrazole-3-carboxylic acid] | > 75
21 | COc1cccc(O[C@H]2C[C@@H]3CN(C(=O)n4ccc(C(=O)O)n4)C[C@@H]3C2)c1Cl [Example 445, 1-(trans-5-(2-chloro-3-methoxyphenoxy)octahydrocyclopenta [c]pyrrole-2-carbonyl)-1H-pyrazole-3-carboxylic acid] | > 75
22 | O=C(O)c1ccn(C(=O)N2C[C@H]3C[C@H](Oc4cccc(-c5cscn5)c4Cl)C[C@H]3C2)n1 [Example 446, 1-(trans-5-(2-chloro-3-(thiazol-4-yl)phenoxy)octa-hydrocyclopenta[c]pyrrole-2-carbonyl)-1H-pyrazole-3-carboxylic acid] | > 75
23 | CC(C)COc1cccc(O[C@H]2C[C@@H]3CN(C(=O)n4ccc(C(=O)O)n4)C[C@@H]3C2)c1Cl [Example 448, 1-(trans-5-(2-chloro-3-isobutoxyphenoxy)octahydrocyclopenta [c]pyrrole-2-carbonyl)-1H-pyrazole-3-carboxylic acid] | > 75
24 | O=C(O)c1nn(C(=O)N2CCN(Cc3cccc(C(F)(F)F)c3N3CCOCC3)CC2)cc1Cl [Example 449, 4-chloro-1-(4-(2-morpholino-3-(trifluoromethyl)benzyl)piperazine-1-carbonyl)-1H-pyrazole-3-carboxylic acid] | > 75
